# Experiments:
# [1] = target: T1, Histamine H1 (Homo sapiens, UniProt P35367); assay: Radioligand displacement (Ricerca); type: binding
# T1 construct: Ricerca
# [2] = test system: L-Type Ca channel (benzothiazepine); assay: Radioligand displacement (Ricerca); type: binding, rat; conditions: 10 μM
# [3] = target: T2, GIRK1/2 (Homo sapiens, UniProt P48051+P48549); assay: Thallium flux assay, HEK-293 cells expressing GIRK1/2; type: cell-based; set-up: host or cells: HEK-293; conditions: cell line GIRK1-2; average ± SEM; read-out: EC50 Thallium Flux
# T2 sequence (P48549 1-501): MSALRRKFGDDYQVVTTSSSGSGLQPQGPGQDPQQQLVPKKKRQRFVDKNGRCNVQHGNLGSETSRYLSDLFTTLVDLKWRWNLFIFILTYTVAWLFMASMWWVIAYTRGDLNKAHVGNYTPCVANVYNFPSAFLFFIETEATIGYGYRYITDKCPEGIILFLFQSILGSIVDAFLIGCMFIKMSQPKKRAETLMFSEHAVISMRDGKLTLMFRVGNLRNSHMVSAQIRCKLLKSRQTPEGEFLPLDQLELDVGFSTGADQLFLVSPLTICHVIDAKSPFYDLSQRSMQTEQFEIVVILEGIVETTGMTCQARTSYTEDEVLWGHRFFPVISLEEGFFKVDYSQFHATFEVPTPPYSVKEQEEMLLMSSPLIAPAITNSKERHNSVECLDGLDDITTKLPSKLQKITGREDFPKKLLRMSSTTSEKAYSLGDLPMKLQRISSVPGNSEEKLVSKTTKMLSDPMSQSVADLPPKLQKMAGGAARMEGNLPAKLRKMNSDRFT
# T2 sequence (P48051 1-423): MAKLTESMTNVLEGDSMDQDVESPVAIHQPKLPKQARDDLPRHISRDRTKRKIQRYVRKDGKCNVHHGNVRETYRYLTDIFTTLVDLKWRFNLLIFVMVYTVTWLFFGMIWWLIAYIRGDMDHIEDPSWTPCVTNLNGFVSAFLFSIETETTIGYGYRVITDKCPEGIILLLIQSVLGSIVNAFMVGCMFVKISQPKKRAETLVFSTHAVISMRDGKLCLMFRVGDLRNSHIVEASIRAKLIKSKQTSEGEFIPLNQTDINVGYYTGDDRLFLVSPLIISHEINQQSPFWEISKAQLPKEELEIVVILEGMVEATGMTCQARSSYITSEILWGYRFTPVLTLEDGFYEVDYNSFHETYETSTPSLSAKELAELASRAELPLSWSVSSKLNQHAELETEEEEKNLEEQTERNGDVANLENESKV
# Excerpt: Cell Line Construction and Cell Culture. HEK-293 cells co-expressing human GIRK1/2 and rat mGlu8 were generated as previously described (Niswender et al., 2008). A HEK-293 cell line (ATCC, Manassas, Va.) expressing human GIRK1 and human GIRK2 was constructed by transfecting HEK-293 cells with GIRK1 and GIRK2 (Origene, Rockville, Md.) cloned into the pBudCE4.1 vector (Life Technologies, Carlsbad, Calif.) using FuGene 6 (Promega, Madison, Wis.) transfection reagent. Unless otherwise noted, other ion channel-expressing cells were prepared by transfecting HEK-293 cells with individual or combinations of subunits: GIRK1, pCMV6-A-BSD; GIRK2, pCMV6-A-puro; GIRK3, pCMV6-A-hygro; GIRK4, pCMV6-A-AC; Kv7.4, pIRESneo3. The Kir2.1 and hERG-expressing cell lines were made by transfecting T-REx-293 cells (Life Technologies, Carlsbad, Calif.) with Kir2.1 and Kv11.1, respectively, cloned into pcDNA5TO. Monoclonal cell lines were produced by limiting-dilution cloning of antibiotic-resistant cells and functional selection using the thallium flux assay described below. Unless otherwise noted, cells were maintained in Minimal Essential Medium, Alpha Medium (Mediatech, Manassas, Va.) supplemented with 10% fetal bovine serum (Sigma-Aldrich, Saint Louis, Mo.) and GlutaGro (Mediatech, Manassas, Va.), referred to henceforth as cell culture medium. […]
# T1 sequence (P35367 whole entry): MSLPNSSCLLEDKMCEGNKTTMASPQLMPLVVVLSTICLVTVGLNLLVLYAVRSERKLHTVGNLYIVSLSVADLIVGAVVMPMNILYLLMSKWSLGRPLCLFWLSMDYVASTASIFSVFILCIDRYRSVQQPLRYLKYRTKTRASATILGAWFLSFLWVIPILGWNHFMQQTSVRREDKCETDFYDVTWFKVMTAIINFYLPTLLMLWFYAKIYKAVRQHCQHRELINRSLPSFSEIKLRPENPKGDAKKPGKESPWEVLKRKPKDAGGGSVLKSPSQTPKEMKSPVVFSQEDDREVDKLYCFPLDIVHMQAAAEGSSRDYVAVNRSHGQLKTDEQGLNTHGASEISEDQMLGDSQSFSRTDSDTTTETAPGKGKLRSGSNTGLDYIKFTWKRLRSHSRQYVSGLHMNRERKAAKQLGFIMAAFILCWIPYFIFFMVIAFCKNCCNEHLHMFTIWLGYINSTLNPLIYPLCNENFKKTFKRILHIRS
smiles,measurement,setting,value
"Cc1cc(NC(=O)Nc2ccc(F)c(F)c2)n(-c2ccccc2)n1 [VU0456810, 1-(3,4-difluorophenyl)-3-(3-methyl-1-phenyl-1H-pyrazol-5-yl)urea]",inhibition at 10 µM,[1],-7%
same,% Inhibition,[2],1%
same,EC50,[3],162 ± 89 nM
